Data reported in patent USRE47493E1, “Substituted bicyclic dihydropyrimidinones and their use as inhibitors of neutrophil elastase activity” (Boehringer Ingelheim International GmbH, priority 2014, dated 2019).

target: Human neutrophil elastase (Homo sapiens (Human), UniProt P08246); assay: Human Neutrophil Elastase Assay; assay type: biochemical; details: human neutrophil elastase, substrate MeOSuc-Ala-Ala-Pro-Val-AMC, pH 7.5; read-out: IC50
Description: Human Neutrophil Elastase Assay
Materials: Human neutrophil elastase was purchased from Calbiochem (Cat.No.: 324681) and the elastase substrate MeOSuc-Ala-Ala-Pro-Val-AMC from Bachem (Cat.No.: I-1270). All other materials were of the highest grade commercially available.
The following buffers were used: Compound buffer: 100 mM Tris, 500 mM NaCl, adjusted to pH 7.5; Assay buffer: 100 mM Tris, 500 mM NaCl, adjusted to pH 7.5, containing 0.01% BSA.
Assay conditions: Test compounds were prediluted in DMSO and subsequently in compound buffer (5% DMSO final). 5 μL of these compound dilutions were mixed with 10 μl Neutrophil elastase (9 ng/ml in assay buffer) in a black 384 well OptiPlate (Perkin Elmer, Cat No.: 6007270) and incubated for 15 min at room temperature. Subsequently 10 μL substrate solution in assay buffer were added (250 nM final concentration) and the plates were incubated for 60 min at room temperature. After inactivation of the enzyme, fluorescence intensities were measured at 380 nm excitation and 460 nm emission wavelengths.
Each plate contains wells with a high value control (DMSO+enzyme+substrate) and wells with a low value control (DMSO+inactivated enzyme+substrate). IC50 values were estimated using a sigmoidal concentration response curve with variable slope. Means of low values were taken as 0%, means of high values as 100%.

Human neutrophil elastase, sequence (P08246 30-267): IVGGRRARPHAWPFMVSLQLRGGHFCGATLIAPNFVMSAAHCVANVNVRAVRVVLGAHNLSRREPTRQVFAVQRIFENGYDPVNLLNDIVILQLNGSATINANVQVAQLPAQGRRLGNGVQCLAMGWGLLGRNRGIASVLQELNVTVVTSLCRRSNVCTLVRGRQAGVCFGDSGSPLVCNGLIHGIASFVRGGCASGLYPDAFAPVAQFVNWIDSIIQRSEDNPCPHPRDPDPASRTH

Row | IC50 [nM] | SMILES
1 | 7.3 | CN1C(=O)N(c2cccc(C(F)(F)F)c2)C2=C(C(=O)CCC2)C1c1ccc(C#N)cc1 (racemic) [Example 20, 4-(1-(3-(Trifluoromethyl)phenyl)-3-methyl-2,5-dioxo-1,2,3,4,5,6,7,8-octahydroquinazolin-4-yl)benzonitrile]
2 | 18.4 | COC(=O)CN1C(=O)N(c2cccc(C(F)(F)F)c2)C2=C(C(=O)CCC2)C1c1ccc(C#N)cc1 (racemic) [Example 31, Methyl 2-(4-(4-Cyanophenyl)-2,5-dioxo-1-(3-(trifluoromethyl)phenyl)-1,2,5,6,7,8-hexahydroquinazolin-3(4H)-yl)acetate]
3 | 9.5 | N#Cc1ccc([C@H]2NC(=O)N(c3cccc(C(F)(F)F)c3)C3=C2C(=O)CCC3)cc1 [Example 1A, (R)-4-(2,5-Dioxo-1-(3-(trifluoromethyl)phenyl)-1,2,3,4,5,6,7,8-octahydroquinazolin-4-yl)benzonitrile]
4 | 6560 | N#Cc1ccc([C@@H]2NC(=O)N(c3cccc(C(F)(F)F)c3)C3=C2C(=O)CCC3)cc1 [Example 1B, (S)-4-(2,5-Dioxo-1-(3-(trifluoromethyl)phenyl)-1,2,3,4,5,6,7,8-octahydroquinazolin-4-yl)benzonitrile]
5 | 2.2 | CN1C(=O)N(c2cccc(C(F)(F)F)c2)C2=C(C(=O)CCC2)[C@H]1c1ccc(C#N)cc1 [Example 20A, (R)-4-(1-(3-(Trifluoromethyl)phenyl)-3-methyl-2,5-dioxo-1,2,3,4,5,6,7,8-octahydroquinazolin-4-yl)benzonitrile]
6 | 1340 | CN1C(=O)N(c2cccc(C(F)(F)F)c2)C2=C(C(=O)CCC2)[C@@H]1c1ccc(C#N)cc1 [Example 20B, (S)-4-(1-(3-(Trifluoromethyl)phenyl)-3-methyl-2,5-dioxo-1,2,3,4,5,6,7,8-octahydroquinazolin-4-yl)benzonitrile]
7 | 7.6 | COC(=O)CN1C(=O)N(c2cccc(C(F)(F)F)c2)C2=C(C(=O)CCC2)[C@H]1c1ccc(C#N)cc1 [Example 31A, (R)-Methyl 2-(4-(4-Cyanophenyl)-2,5-dioxo-1-(3-(trifluoromethyl)phenyl)-1,2,5,6,7,8-hexahydroquinazolin-3(4H)-yl)acetate]
8 | 7020 | COC(=O)CN1C(=O)N(c2cccc(C(F)(F)F)c2)C2=C(C(=O)CCC2)[C@@H]1c1ccc(C#N)cc1 [Example 31B, (S)-Methyl 2-(4-(4-Cyanophenyl)-2,5-dioxo-1-(3-(trifluoromethyl)phenyl)-1,2,5,6,7,8-hexahydroquinazolin-3(4H)-yl)acetate]
9 | 1.5 | CN(C)C(=O)CN1C(=O)N(c2cccc(C(F)(F)F)c2)C2=C(C(=O)CCC2)[C@H]1c1ccc(C#N)cc1 [Example 34A, (R)-2-(4-(4-Cyanophenyl)-2,5-dioxo-1-(3-(trifluoromethyl)phenyl)-1,2,5,6,7,8-hexahydroquinazolin-3(4H)-yl)-N,N-dimethylacetamide]
10 | 570 | CN(C)C(=O)CN1C(=O)N(c2cccc(C(F)(F)F)c2)C2=C(C(=O)CCC2)[C@@H]1c1ccc(C#N)cc1 [Example 34B, (S)-2-(4-(4-Cyanophenyl)-2,5-dioxo-1-(3-(trifluoromethyl)phenyl)-1,2,5,6,7,8-hexahydroquinazolin-3(4H)-yl)-N,N-dimethylacetamide]
11 | < 1 | Cn1ncc2c1CN(C(=O)CN1C(=O)N(c3cccc(C(F)(F)F)c3)C3=C(C(=O)CCC3)[C@H]1c1ccc(C#N)cc1)C2 [Example 35A, (R)-4-(3-(2-(1-Methylpyrrolo[3,4-c]pyrazol-5(1H,4H,6H)-yl)-2-oxoethyl)-2,5-dioxo-1-(3-(trifluoromethyl)phenyl)-1,2,3,4,5,6,7,8-octahydroquinazolin-4-yl)benzonitrile]
12 | 26.8 | Cn1ncc2c1CN(C(=O)CN1C(=O)N(c3cccc(C(F)(F)F)c3)C3=C(C(=O)CCC3)[C@@H]1c1ccc(C#N)cc1)C2 [Example 35B, (S)-4-(3-(2-(1-Methylpyrrolo[3,4-c]pyrazol-5(1H,4H,6H)-yl)-2-oxoethyl)-2,5-dioxo-1-(3-(trifluoromethyl)phenyl)-1,2,3,4,5,6,7,8-octahydroquinazolin-4-yl)benzonitrile]
13 | 5 | N#Cc1ccc(C2C3=C(CCCC3=O)N(c3cccc(C(F)(F)F)c3)C(=O)N2CC(=O)N2CCN3CCCC3C2)cc1 (stereo not drawn) [Example 36.56]
14 | 12.7 | CN1C[C@@H](NC(=O)CN2C(=O)N(c3cccc(C(F)(F)F)c3)C3=C(C(=O)CCC3)C2c2ccc(C#N)cc2)CCC1=O (stereo partly drawn) [Example 36.61]
15 | 8.2 | N#Cc1ccc(C2C3=C(CCCC3=O)N(c3cccc(C(F)(F)F)c3)C(=O)N2CC(=O)NCCN2CCNC2=O)cc1 (stereo not drawn) [Example 36.62]

Second part, the compound before the results:

Row | SMILES | IC50 [nM]
16 | N#Cc1ccc(C2NC(=O)N(c3cccc(C(F)(F)F)c3)C3=C2C(=O)CCC3)cc1 (racemic) [Example 1, 4-(2,5-Dioxo-1-(3-(trifluoromethyl)phenyl)-1,2,3,4,5,6,7,8-octahydroquinazolin-4-yl)-benzonitrile] | 28.5
17 | CS(=O)(=O)c1cc(C#N)ccc1C1NC(=O)N(c2cccc(C(F)(F)F)c2)C2=C1C(=O)CCC2 (racemic) [Example 18, 4-(2,5-Dioxo-1-(3-(trifluoromethyl)phenyl)-1,2,3,4,5,6,7,8-octahydroquinazolin-4-yl)-3-(methylsulfonyl)benzonitrile] | 8.5
18 | CS(=O)(=O)c1cc(C#N)ccc1C1NC(=O)N(c2cccc(C(F)F)c2)C2=C1C(=O)CCC2 (racemic) [Example 19, 4-(1-(3-(Difluoromethyl)phenyl)-2,5-dioxo-1,2,3,4,5,6,7,8-octahydroquinazolin-4-yl)-3-(methylsulfonyl)benzonitrile] | 10.7
19 | CCS(=O)(=O)c1cc(C#N)ccc1[C@@H]1NC(=O)N(c2cccc(C(F)(F)F)c2)C2=C1C(=O)CCC2 (single isomer, unassigned) [Example 54B] | 1870
20 | CS(=O)(=O)c1cc(C#N)ccc1[C@@H]1NC(=O)N(c2cccc(C(F)(F)F)c2)C2=C1C(=O)CCC2 [Example 18B, (R)-4-(2,5-Dioxo-1-(3-(trifluoromethyl)phenyl)-1,2,3,4,5,6,7,8-octahydroquinazolin-4-yl)-3-(methylsulfonyl)benzonitrile] | 2510
21 | CS(=O)(=O)c1cc(C#N)ccc1[C@@H]1NC(=O)N(c2cccc(C(F)F)c2)C2=C1C(=O)CCC2 [Example 19B, (R)-4-(1-(3-(Difluoromethyl)phenyl)-2,5-dioxo-1,2,3,4,5,6,7,8-octahydroquinazolin-4-yl)-3-(methylsulfonyl)benzonitrile] | 1660
22 | CNC(=O)N1C(=O)N(c2cccc(C(F)(F)F)c2)C2=C(C(=O)CCC2)[C@@H]1c1ccc(C#N)cc1S(C)(=O)=O [Example 47B, (R)-4-(4-Cyano-2-(methylsulfonyl)phenyl)-N-methyl-2,5-dioxo-1-(3-(trifluoromethyl)-phenyl)-1,2,5,6,7,8-hexahydroquinazoline-3(4H)-carboxamide] | 94
23 | CS(=O)(=O)c1cc(C#N)ccc1C1C2=C(CCCC2=O)N(c2cccc(C(F)(F)F)c2)C(=O)N1CC(F)F (stereo not drawn) [Example 58.3] | 3.1
24 | COCCCN1C(=O)N(c2cccc(C(F)(F)F)c2)C2=C(C(=O)CCC2)C1c1ccc(C#N)cc1S(C)(=O)=O (stereo not drawn) [Example 58.4] | 11.3
25 | CS(=O)(=O)c1cc(C#N)ccc1C1C2=C(CCCC2=O)N(c2cccc(C(F)(F)F)c2)C(=O)N1CC(=O)N1CCC1 (stereo not drawn) [Example 62.1] | < 1
26 | CS(=O)(=O)c1cc(C#N)ccc1C1C2=C(CCCC2=O)N(c2cccc(C(F)(F)F)c2)C(=O)N1CC(=O)N1CCCC1 (stereo not drawn) [Example 62.2] | < 1

same assay, conditions: read-out: IC50, inhibition of neutrophil elastase

Row | IC50 [nM] | SMILES
27 | 2510 | CS(=O)(=O)c1cc(C#N)ccc1[C@@H]1NC(=O)N(c2cccc(C(F)(F)F)c2)C2=C1C(=O)CCC2 [Example 18B, (R)-4-(2,5-Dioxo-1-(3-(trifluoromethyl)phenyl)-1,2,3,4,5,6,7,8-octahydroquinazolin-4-yl)-3-(methylsulfonyl)benzonitrile]
